This note sets out measurements from article PMC8478262 (Blood Cancer Discovery, 2021).

For data set [1], the system named is MOLM-14 cells. It is filed as cell-based. The note with it: for increase in IC50 (inhibition) in the presence of 50% human plasma: 50% human plasma vs 10% FBS.
Data set [2] has as its system FLT3. It is filed as cell-based.
Data set [3] relates to Ba/F3-FLT3/ITD-Luc cells. It is filed as in vivo, BALB/c mice.
Data set [4] relates to HL-60 cells. Kind of data set: Antiproliferative effect of staurosporine on HL-60 cells in the presence of AGP. It is filed as cell-based. The note with it: until saturating concentrations of drug were used.
A short description of data set [5]: Human AGP levels and tolerability in mice after intraperitoneal injection. It is filed as in vivo. The note with it: 0.3 g/kg i.p.

Where two headings read alike, the source gives them in different places.

Consider `CCc1nc(C(N)=O)c(Nc2ccc(N3CCC(N4CCN(C)CC4)CC3)c(OC)c2)nc1NC1CCOCC1` [gilteritinib], for which the “effect of plasma proteins on activity” value in data set [1] (50% human plasma or 50 mg/dL AGP, 48 h MTT) is “minimally affected”.

On to `C[C@]12O[C@H](C[C@]1(O)CO)n1c3ccccc3c3c4c(c5c6ccccc6n2c5c31)CNC4=O` [lestaurtinib], for which, in data set [1] (50% human plasma from healthy donors, 48 h), the “IC50 in 50% human plasma compared with 10% FBS” value is “IC50s were no longer reached”. Moreover, the “increase in IC50 (inhibition) in the presence of 50% human plasma” value in data set [1] (48 h MTT) was “greater than 100 fold”. In addition, in data set [1] (AGP 31 µg/mL – 2 mg/mL, 48 h MTT), the “activity across a range of AGP concentrations” value is on record as “appreciable activity is seen only at AGP concentrations less than one tenth of physiologic human levels”. Moreover, the “IC50 increase by bovine AGP” value in data set [1] (bovine AGP adjusted to human-comparable levels) is about 5 fold. The “FLT3 phosphorylation inhibition in the presence of human plasma” value in data set [2] (10 nmol/L and 100 nmol/L TKI, 50% human plasma) is on record as “no appreciable FLT3 TKI activity”.

`CO[C@@H]1[C@H](N(C)C(=O)c2ccccc2)C[C@H]2O[C@]1(C)n1c3ccccc3c3c4c(c5c6ccccc6n2c5c31)C(=O)NC4` [midostaurin]: the “response of transplanted FLT3/ITD cells (bioluminescence day 9)” value is on record as “regression of the cells” in data set [3] (midostaurin alone, oral gavage 4 days) and “progression of the cells comparable with that seen in the control animals” in data set [3] (midostaurin plus intraperitoneal human AGP).

Turning to `CC#C[C@]1(O)CC[C@H]2[C@@H]3CCC4=CC(=O)CCC4=C3[C@@H](c3ccc(N(C)C)cc3)C[C@@]21C` [mifepristone], the “response of transplanted FLT3/ITD cells (bioluminescence day 9)” value in data set [3] (midostaurin plus human AGP plus oral mifepristone) is “regression of the transplanted cells comparable with those of the midostaurin alone–treated mice”. Also, the “effect of mifepristone alone on cell growth” value in data set [1] (at concentrations of maximal effect, no TKI) is on record as “no appreciable effect on cell growth”. Also, in data set [1] (no AGP), the “impact upon TTT-3002 dose–response curves in the absence of AGP” value was “had no impact”. Also, the “effect alone upon FLT3 autophosphorylation or downstream signaling” value in data set [2] (mifepristone alone) is given as “no effect”.

For the compound `CC(C)(C)c1cc(NC(=O)Nc2ccc(-c3cn4c(n3)sc3cc(OCCN5CCOCC5)ccc34)cc2)no1` [quizartinib], in data set [1] (48 h MTT), the “increase in IC50 (inhibition) in the presence of 50% human plasma” value is 37 fold.

As to `CNC(=O)c1cc(Oc2ccc(NC(=O)Nc3ccc(Cl)c(C(F)(F)F)c3)cc2)ccn1` [sorafenib], the “increase in IC50 (inhibition) in the presence of 50% human plasma” value in data set [1] (48 h MTT) is given as “greater than 100 fold”.

For the compound `CN[C@@H]1C[C@H]2O[C@@](C)([C@@H]1OC)n1c3ccccc3c3c4c(c5c6ccccc6n2c5c31)C(=O)NC4` [staurosporine], in data set [4], the “antiproliferative activity in the presence of AGP” value is “no appreciable activity”.

As for “human AGP: alpha-1-acid glycoprotein purified from human plasma (Sigma), injected i.p. into mice”, the terminal half-life entry in data set [5] is recorded as “approximately 17 hours”.
